The IC50 is the concentration that inhibits the measured activity by half.

Three molecules from ChEMBL document CHEMBL1126096, “Carbohydrate materials bearing neuraminidase-resistant C-glycosides of sialic acid strongly inhibit the in vitro infectivity of influenza virus” (J Med Chem, 1992) can be followed below.

The subject of assay [1] is unidentified influenza virus. Put plainly: The compound was evaluated for the inhibition of influenza virus (X-31). Type of assay: functional, organism-based.
The test system of assay [2] is unidentified influenza virus. Description: Potency to inhibit influenza virus (X-31) relative to alpha-C-allyl sialic acid. Type of assay: functional.

Turning to `CO[C@]1(C(=O)O)C[C@H](O)[C@@H](NC(C)=O)[C@H]([C@@H](O)[C@H](O)CO)O1`, in assay [1], the IC50 came to 4 mM. The molecule also showed a Relative potency in assay [2] of 2.5.

The molecule `C=CC[C@@]1(C(=O)O)C[C@H](O)[C@@H](NC(C)=O)[C@H](C(O)C(O)CO)O1` (stereo partly specified) yielded a 50% inhibitory concentration (IC50) in assay [1] of 10 mM. The same molecule displayed a Relative potency in assay [2] of 1.

Turning to `C=CC[C@]1(C(=O)O)C[C@H](O)[C@@H](NC(C)=O)[C@H](C(O)C(O)CO)O1` (stereo partly specified), in assay [1], the IC50 is over 50 mM. In assay [2], the Relative potency is under 0.02.
